Laboratory results reported in publication PMC7876005 (Communications Biology, 2021).
Where a SMILES comes first, the peptide text is derived from it.

Legend:
[1] = target: T1, Pgk1 (Saccharomyces cerevisiae, UniProt P00560); experiment: microscale thermophoresis
T1 sequence (P00560 2-416): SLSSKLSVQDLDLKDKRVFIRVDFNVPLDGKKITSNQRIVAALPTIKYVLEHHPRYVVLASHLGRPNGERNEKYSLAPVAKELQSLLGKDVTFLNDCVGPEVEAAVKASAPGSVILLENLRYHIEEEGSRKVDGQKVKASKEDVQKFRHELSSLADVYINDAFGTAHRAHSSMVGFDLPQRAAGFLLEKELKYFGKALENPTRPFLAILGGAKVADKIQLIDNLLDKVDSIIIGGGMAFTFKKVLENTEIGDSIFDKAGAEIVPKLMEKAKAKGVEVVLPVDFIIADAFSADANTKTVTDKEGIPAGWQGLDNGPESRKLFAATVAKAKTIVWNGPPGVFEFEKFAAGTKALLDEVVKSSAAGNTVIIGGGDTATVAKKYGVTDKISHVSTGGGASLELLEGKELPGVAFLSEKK

[2] = target: T2, Pnp1 (Saccharomyces cerevisiae, UniProt Q05788); experiment: LC-MS assay of inosine conversion to hypoxanthine; assay type: biochemical
T2 construct: recombinant, overexpressed in yeast ORF collection strain (Dharmacon), purified; monomeric mass 33 kDa
T2 sequence (Q05788 2-311): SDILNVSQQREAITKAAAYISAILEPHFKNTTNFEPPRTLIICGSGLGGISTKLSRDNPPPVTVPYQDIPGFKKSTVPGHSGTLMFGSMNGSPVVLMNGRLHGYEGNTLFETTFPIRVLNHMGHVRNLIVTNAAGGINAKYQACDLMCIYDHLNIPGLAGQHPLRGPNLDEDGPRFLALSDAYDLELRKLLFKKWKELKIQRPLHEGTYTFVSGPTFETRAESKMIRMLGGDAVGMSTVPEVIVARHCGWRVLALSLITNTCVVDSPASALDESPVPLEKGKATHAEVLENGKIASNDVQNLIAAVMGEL

Kd [1] | inhibition at 100 µM [2] | SMILES
416 µM | – | CC(C)C[C@H](NC(=O)[C@@H](N)CO)C(=O)O [Ser-Leu] (H-Ser-Leu-OH)
– | < 32% | O=c1[nH]c(=O)c2[nH]cnc2[nH]1 [xanthine]
122 µM | – | Nc1ncnc2c1ncn2[C@@H]1O[C@H](COP(=O)(O)OP(=O)(O)OP(=O)(O)O)[C@@H](O)[C@H]1O [ATP]
